Experimental data as given in patent publication US20140080813A1, “TRICYCLIC QUINOLINE AND QUINOXALINE DERIVATIVES” (ABBVIE DEUTSCHLAND GMBH & CO. KG, priority 2012, published 2014).
Structures can show the parent of a compound that is named as a salt.

Biological target: T1, 5-HT2C receptor (Homo sapiens, UniProt P28335)
T1 construct: host or cells: U2OS
Assay: Functional activity: beta-arrestin2 recruitment to the 5-HT2C receptor in U2OS_HTR2C-β-Arrestin cells (DiscoverX)
Type: cell-based
Conditions: 1.5 h incubation, chemiluminescent β-galactosidase complementation readout, read-out: Potency (EC50) in functional assay
Method: The functional activity of compounds of formula I was assayed by incubation with U2OS_HTR2C—β-Arrestin cells (DiscoverX, 93-0289C3) to induce beta-arrestin2 recruitment to the 5-HT2C receptor. The agonist-induced recruitment and proximity of the receptor and beta-arrestin2 leads to complementation and formation of active β-galactosidase. The enzyme complementation results in enzyme activity, which is measured following the termination of the agonist incubation using DiscoveRx's detection reagent, which contains a chemiluminescent substrate which produces a high intensity signal. Cells were plated and a medium-change to a 1% serum containing medium was performed 24 h later. The next day, test compounds were added and incubated for 1.5 h before addition of detection reagent.
The response produced was measured and compared with the response produced by 10 [mu]M 5-HT or the maximal effect induced by 5-HT (defined as 100%) to which it was expressed as a percentage response (relative efficacy). Dose response curves were constructed using Graphpad Prism (Graph Software Inc.) or using in house adapted software using a 4 parameter dose response model with variable slope (fit=(Bottom+(Top−Bottom)/(1+10̂((LogEC50−x)*HillSlope))res=(y-fit)). Results are compiled in the table below.

T1 sequence (P28335 33-458): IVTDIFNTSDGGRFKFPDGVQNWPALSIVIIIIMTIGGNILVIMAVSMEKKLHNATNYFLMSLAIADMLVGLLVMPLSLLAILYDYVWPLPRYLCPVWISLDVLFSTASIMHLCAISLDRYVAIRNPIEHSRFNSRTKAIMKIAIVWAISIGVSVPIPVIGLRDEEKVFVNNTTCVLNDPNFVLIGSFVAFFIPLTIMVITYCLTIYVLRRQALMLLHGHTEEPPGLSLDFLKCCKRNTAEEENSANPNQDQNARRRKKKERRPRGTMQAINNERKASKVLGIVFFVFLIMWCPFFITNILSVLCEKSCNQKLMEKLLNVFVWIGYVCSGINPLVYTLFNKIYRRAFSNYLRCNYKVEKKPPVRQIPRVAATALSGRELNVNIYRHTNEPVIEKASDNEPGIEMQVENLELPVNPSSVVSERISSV
T1 sequence (P32121 whole entry partner): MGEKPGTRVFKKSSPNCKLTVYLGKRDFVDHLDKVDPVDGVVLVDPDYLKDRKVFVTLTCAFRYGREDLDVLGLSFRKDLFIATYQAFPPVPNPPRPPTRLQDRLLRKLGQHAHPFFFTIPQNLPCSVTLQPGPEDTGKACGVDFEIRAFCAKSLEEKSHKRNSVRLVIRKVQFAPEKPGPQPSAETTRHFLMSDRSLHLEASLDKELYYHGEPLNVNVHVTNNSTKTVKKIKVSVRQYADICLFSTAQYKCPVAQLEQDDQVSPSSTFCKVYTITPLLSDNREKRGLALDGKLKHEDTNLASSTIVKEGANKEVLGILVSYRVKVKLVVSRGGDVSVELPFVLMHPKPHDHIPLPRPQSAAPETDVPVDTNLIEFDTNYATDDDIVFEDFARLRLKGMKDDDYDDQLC

First: CC1CN2CCNCc3cccc(c32)C1(C)C (single isomer, unassigned) [Example 27]
Second: CC1(C)CCN2CCNCc3cccc1c32 [Example 1, 8,8-Dimethyl-2,3,4,6,7,8-hexahydro-1H-[1,4]diazepino[6,7,1-ij]quinoline]
The EC50 of the first is higher: 200 to 1000 nM for the first, 20 to 200 nM for the second. The second is the more potent here.

First: CC1(C)CCN2CCNCc3ccc(F)c1c32 [Example 22, 9-Fluoro-8,8-dimethyl-2,3,4,6,7,8-hexahydro-1H-[1,4]diazepino[6,7,1-ij]quinoline]
Second: Fc1ccc2c3c1C1(CCC1)CCN3CCNC2 [Example 26, 9′-Fluoro-1′,2′,3′,4′,6′,7′-hexahydrospiro[cyclobutane-1,8′-[1,4]diazepino[6,7,1-ij]quinoline], hydrochloride]
The EC50 of the first is higher: 20 to 200 nM for the first, less than 20 nM for the second.

`c1cc2c3c(c1)C1(CCCC1)CCN3CCNC2` [Example 6, 1,2,3,4,6,7-Hexahydrospiro[[1,4]diazepino[6,7,1-ij]quinoline-8,1′-cyclopentane]] and `c1cc2c3c(c1)C1(CCC1)CCN3CCNC2` [Example 25, 1′,2′,3′,4′,6′,7′-Hexahydrospiro[cyclobutane-1,8′-[1,4]diazepino[6,7,1-ij]quinoline], hydrochloride] fall in the same range of EC50: 20 to 200 nM for the first, 20 to 200 nM for the second.

First: CC1(C)CCN2CCNCc3cc(Cl)cc1c32 [Example 19, 10-Chloro-8,8-dimethyl-2,3,4,6,7,8-hexahydro-1H-[1,4]diazepino[6,7,1-ij]quinoline bis(2,2,2-trifluoroacetate)]
Second: CC1(C(F)(F)F)CCN2CCNCc3cccc1c32 (single isomer, unassigned) [Example 9, 8-Methyl-8-(trifluoromethyl)-2,3,4,6,7,8-hexahydro-1H-[1,4]diazepino[6,7,1-ij]quinoline]
The EC50 of the first is higher: 20 to 200 nM for the first, less than 20 nM for the second. The second is the more potent here.

First: c1cc2c3c(c1)N1CCC[C@@H]1CN3CCNC2 [Example 16, (R)-5,6,7,9,9a,10,11,12-Octahydro-4H-[1,4]diazepino[1,7,6-de]pyrrolo[1,2-a]quinoxaline bis(2,2,2-trifluoroacetate)]
Second: CC1CN2CCNCc3cccc(c32)C1(C)C (single isomer, unassigned) [Example 28]
The EC50 of the first is higher: 200 to 1000 nM for the first, 20 to 200 nM for the second. The second is the more potent here.

`CC1(C(F)(F)F)CCN2CCNCc3cccc1c32` (single isomer, unassigned) [Example 8, 8-Methyl-8-(trifluoromethyl)-2,3,4,6,7,8-hexahydro-1H-[1,4]diazepino[6,7,1-ij]quinoline] showed an EC50 of 20 to 200 nM.
